≈ marks a conversion by molar mass, not a printed value. Where two headings read alike, the source gives them in different places.
How the values were obtained:
[1] = cited from earlier work
[2] = recent report; cited from earlier work
[3] = target: mutant forms (ΔF508) of CFTR (Homo sapiens, UniProt P13569, DEL508-508); conditions: cited from earlier work
[4] = system: rat colon epithelial cells; conditions: cited from earlier work
[5] = system: chemokine receptors (CXCR2/b); test: Cl- transport/efflux in Calu-3 cells, IL-8 via chemokine receptors; assay type: cell-based, human
[6] = system: adenylyl cyclase activity; test: adenylyl cyclase activity in Calu-3 cells; assay type: cell-based, human; conditions: FIG. 6
C5aR (CD88) = target: T1, C5aR (CD88) (Homo sapiens, UniProt P21730); test: Cl- efflux in Calu-3 cells, C5a via C5aR; assay type: cell-based
T1 construct: endogenous in cells; host or cells: Calu-3 (ATCC HTB-55)
T1 sequence (P21730 1-350): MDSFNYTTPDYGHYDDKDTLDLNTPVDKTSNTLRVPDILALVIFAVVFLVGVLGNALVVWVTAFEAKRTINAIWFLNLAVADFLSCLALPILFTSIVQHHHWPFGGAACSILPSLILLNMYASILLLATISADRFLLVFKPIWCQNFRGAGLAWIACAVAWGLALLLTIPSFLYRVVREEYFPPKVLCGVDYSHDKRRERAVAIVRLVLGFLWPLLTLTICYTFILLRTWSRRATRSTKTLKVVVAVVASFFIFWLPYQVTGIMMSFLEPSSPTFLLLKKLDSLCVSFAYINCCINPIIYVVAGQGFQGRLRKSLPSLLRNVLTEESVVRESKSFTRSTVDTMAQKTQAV

Chain of mutant forms (ΔF508) of CFTR (P13569 with tags, fused parts or gaps DEL508-508): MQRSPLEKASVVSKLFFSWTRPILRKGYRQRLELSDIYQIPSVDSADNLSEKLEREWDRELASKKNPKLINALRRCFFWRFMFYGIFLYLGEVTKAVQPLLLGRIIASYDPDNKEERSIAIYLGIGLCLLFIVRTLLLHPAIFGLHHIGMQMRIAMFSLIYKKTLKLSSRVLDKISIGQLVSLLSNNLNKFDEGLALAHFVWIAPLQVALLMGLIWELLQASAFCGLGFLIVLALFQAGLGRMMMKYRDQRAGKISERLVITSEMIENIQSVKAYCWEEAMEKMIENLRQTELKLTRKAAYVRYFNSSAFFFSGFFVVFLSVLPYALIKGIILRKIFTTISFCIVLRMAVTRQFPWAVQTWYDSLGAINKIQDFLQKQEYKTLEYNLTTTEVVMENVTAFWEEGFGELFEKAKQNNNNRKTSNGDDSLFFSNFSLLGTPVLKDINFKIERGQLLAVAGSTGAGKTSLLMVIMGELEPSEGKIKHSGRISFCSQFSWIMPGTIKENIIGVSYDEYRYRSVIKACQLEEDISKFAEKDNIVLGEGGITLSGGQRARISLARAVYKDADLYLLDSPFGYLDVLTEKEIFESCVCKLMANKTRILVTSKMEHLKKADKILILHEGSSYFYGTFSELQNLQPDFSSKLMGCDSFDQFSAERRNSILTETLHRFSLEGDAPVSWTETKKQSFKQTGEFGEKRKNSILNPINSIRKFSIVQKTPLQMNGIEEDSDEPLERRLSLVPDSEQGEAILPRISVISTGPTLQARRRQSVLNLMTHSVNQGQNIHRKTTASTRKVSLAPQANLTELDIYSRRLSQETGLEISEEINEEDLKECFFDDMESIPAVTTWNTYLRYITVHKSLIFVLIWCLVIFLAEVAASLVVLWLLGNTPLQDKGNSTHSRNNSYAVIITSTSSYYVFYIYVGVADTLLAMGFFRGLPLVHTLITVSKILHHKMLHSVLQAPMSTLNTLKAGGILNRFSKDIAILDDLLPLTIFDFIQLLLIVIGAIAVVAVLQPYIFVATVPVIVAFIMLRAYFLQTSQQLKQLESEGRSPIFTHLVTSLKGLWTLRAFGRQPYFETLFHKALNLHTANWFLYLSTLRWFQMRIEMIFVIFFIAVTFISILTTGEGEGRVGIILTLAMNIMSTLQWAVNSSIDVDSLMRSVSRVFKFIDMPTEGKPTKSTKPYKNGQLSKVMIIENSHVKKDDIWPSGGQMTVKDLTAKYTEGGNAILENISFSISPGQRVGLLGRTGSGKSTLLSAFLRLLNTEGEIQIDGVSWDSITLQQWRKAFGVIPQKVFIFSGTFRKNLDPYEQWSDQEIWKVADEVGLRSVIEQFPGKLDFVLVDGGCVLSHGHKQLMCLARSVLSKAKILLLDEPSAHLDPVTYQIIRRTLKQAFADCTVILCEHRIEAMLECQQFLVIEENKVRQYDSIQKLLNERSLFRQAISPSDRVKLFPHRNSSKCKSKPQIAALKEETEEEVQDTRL

CNc1ccc2oc(C[C@H]3O[C@@]4(CC[C@H]3C)O[C@H]([C@H](C)C(=O)c3ccc[nH]3)[C@H](C)C[C@H]4C)nc2c1C(=O)O [A23187, calcimycin]
Solubility ([1]; in DMSO): 50 mg/mL (≈ 95.5 mM) | Solubility ([1]; in EtOH): 5 mg/mL (≈ 9.55 mM)

CCCn1c(=O)c2[nH]c(C3CCCC3)nc2n(CCC)c1=O [CPX, 8-cyclo-pentyl-1,3-dipropylxanthine]
efficacy in treating mild cystic fibrosis [2]: somewhat effective

CC(C)Cn1c(=O)n(C)c(=O)c2[nH]cnc21 [IBMX]
activity of mutant CFTR, chloride transport function [3]: able to stimulate some activity

O=c1c(O)c(-c2ccc(O)c(O)c2)oc2cc(O)cc(O)c12 [quercetin]
Cl- secretion [4]: induce Cl^− secretion

IL-8: chemokine released on activation of innate immunity, activates CXCR2
basal levels of Cl- transport ([5]; Calu-3 cells, via CXCR2/b, FIG. 9): inhibits | cAMP dependent Cl- efflux ([5]; FIG. 10): inhibits

B1: C5a: proinflammatory anaphylatoxin peptide generated during complement activation, acts through C5aR (protein, UniProt P01031 678-751, looked up)
C5a anaphylatoxin: TLQKKIEEIAAKYKHSVVKKCCYDGACVNNDETCEQRAARISLGPRCIKAFTECCVVASQLRANISHKDMQLGR
modifications: C5a anaphylatoxin
adenylyl cyclase activity [6]: inhibits | basal Cl- efflux (C5aR (CD88); Calu-3 cells, via C5aR (CD88), FIG. 7): inhibits | cAMP dependent Cl- efflux (C5aR (CD88); FIG. 8): inhibits
